{
  "source": "paper PMC9884808",
  "about": "“Pharmacokinetics, tissue distribution, and antitumor activity of a novel compound, NY-2, in non-small cell lung cancer” (Frontiers in Pharmacology, 2023)",
  "key": {"[1]": {"assay": "Stability of plasma samples (LC-MS/MS method validation)", "format": "in vitro ADME, rat", "conditions": "room temperature 12 h, auto-sampler 4°C 3 days, -20°C 14 days, three freeze-thaw cycles", "from_the_text": "We used the online ADME prediction tool Swiss AMDE (http://www.swissadme.ch/index.php) (SwissADME, 2017) to analyze the physicochemical descriptors and ADME parameters of NY-2 and ZLDI-8, to predict their pharmacokinetic properties, drug-like nature, and medicinal chemistry. […] Male Sprague-Dawley rats weighing 240 ± 20 g were purchased from Liaoning Changsheng Biotechnology Co., Ltd. (Liaoning, China, animal license #SCXK-2015-0001). Rats were used for the tissue distribution and pharmacokinetics experiments because of their larger body fluid volume. The rats were fasted for 12 h before the experiment but allowed to drink water freely. […] Plasma samples were subjected to a protein precipitation method for the quantitative analysis of ZLDI-8 and NY-2 by LC-MS/MS (API 3200MD, AB Sciex, United States). […] The linear equation and correlation coefficient (r) of the regression curve were calculated from these concentrations and the corresponding […] data. The specificity, lower limit of quantification (LLOQ), linear range, precision, accuracy, matrix effects, extraction recovery, stability of analytes during the whole process of storage, as well as treatment in a biological matrix and solution were determined to verify the reliability of the compound concentrations in vivo. […]"}, "LoVo": {"test_system": "LoVo", "assay": "MTT cell viability assay", "format": "cell-based, human", "conditions": "Homo sapiens, LoVo colorectal cancer cells", "method": "The human colorectal cancer cell lines, HCT116 and LoVo, the breast cancer cell line, T47D, the hepatocellular carcinoma cell line, HepG2, the normal human liver cell line, HL7702, human umbilical vein endothelial cells (HUVECs), and the non-small cell lung cancer cell lines, A549, H1993, HCC827, H460, were purchased from the American Type Culture Collection (Manassas, VA, United States). Cell lines were cultured in the recommended RPMI-1640 medium (AE24464298, Hyclone, United States) and DMEM medium (AE29422278, Hyclone, United States) supplemented with 10% fetal bovine serum (FBS; JC63470, FB15015, Clark, United States) with 1% penicillin-streptomycin. Cells were maintained in an incubator at 37°C with 5% CO2 (HF90,Sanyo, Japan) and passaged every 48–72 h, after detaching with 0.25% trypsin (Sigma, United States). The compounds ZLDI-8 and NY-1 to -15 were synthesized in the laboratory of Dr. Huaiwei Ding in Shenyang Pharmaceutical University, and verified by high-performance liquid chromatography (purity >95%) for use in experiments (Supplementary Figure S1). Paclitaxel was purchased from MedChemExpress (HY-B0015, 99.97% purity, United States).\nCell viability was measured by the MTT assay. HCT116, HL7702, A549, H1993, HCC827, and H460 cells were dispensed into 96-well plates at a density of 1 × 10^5 cells/mL. After 24–48 h incubation, cells were treated with the compounds at different concentrations for the indicated periods. An assay kit (WLA073, Wanlei Co., Liaoning, China), was used according to the manufacturer’s instructions to measure LDH activity, The absorbance at 450 nm was measured with a microplate reader (Elx-800, Bio-Rad, China).\nThe preliminary antitumor activity of the series of ZLDI-8 derivatives, NY-1 to -15 was screened by the MTT cell viability assay. […] The antitumor activity of NY-2 on HCT116 cells was concentration- and time-dependent, and slightly better than that of the original compound, ZLDI-8."}},
  "data": [
    {"smiles": "Cc1c(C=C2C(=O)NC(=S)NC2=O)c2ccccc2n1CCOc1ccc(F)cc1", "note": "[NY-2]", "values": [
      {"measurement": "stability of plasma samples", "setting": "[1]", "value": "stable under a variety of analytical conditions"},
      {"measurement": "IC50", "setting": "LoVo", "value": 5.82, "unit": "µM"}
    ]},
    {"smiles": "Cc1ccc(OCCn2c(C)c(C=C3C(=O)NC(=S)NC3=O)c3ccccc32)c(C)c1", "note": "[ZLDI-8, reference compound]", "values": [
      {"measurement": "stability of plasma samples", "setting": "[1]", "value": "stable under a variety of analytical conditions"},
      {"measurement": "IC50", "setting": "LoVo", "value": 9.65, "unit": "µM"}
    ]}
  ]
}
